Experimental data from EP4610269A1, “UROKINASE PLASMINOGEN ACTIVATOR SURFACE RECEPTOR (UPAR) LIGANDS FOR DIAGNOSTIC OR THERAPEUTIC USE” (3B Pharmaceuticals GmbH, priority 2024, dated 2025).
Read-outs that look alike come from different tables or passages of the source. *1 amine or outer side, *2 acyl side, *3 side chain or, on linkers, in order; H or OH if unused. Where a SMILES comes first, the peptide text is derived from it. Bridges are numbered along the chain shown (N, C = ends). [ ]: non-standard residue; d: D form. The star is where a group is joined. GdDOTA = Gd(III) DOTA conjugate, O=C([O-])CN1CCN(CC(=O)[O-])CCN(CC(=O)*)CCN(CC(=O)[O-])CC1.[Gd+3]; DOTA = O=C(O)CN1CCN(CC(=O)O)CCN(CC(=O)*)CCN(CC(=O)O)CC1; Pro(trans-4-F) = O=C(O)[C@@H]1C[C@@H](F)CN1; Phe(4-Cl) = N[C@@H](Cc1ccc(Cl)cc1)C(=O)O; Pro(cis-4-F) = O=C(O)[C@@H]1C[C@H](F)CN1; Dopa = N[C@@H](Cc1ccc(O)c(O)c1)C(=O)O; Hyp = O=C(O)[C@@H]1C[C@@H](O)CN1; dCit = NC(=O)NCCC[C@@H](N)C(=O)O; Pentanoyl(4-Me) = CC(C)CCC(=O)*; Cit = NC(=O)NCCC[C@H](N)C(=O)O; Butoxycarbonyl = CCCCOC(=O)*; Nva = CCC[C@H](N)C(=O)O; Pentanoyl = CCCCC(=O)*; CO = O=C([*:1])[*:2]; NHBu = CCCCN*

Tests used:
[1] = molecular target: T1, human uPAR (uPAR-Fc) (Homo sapiens, UniProt Q03405); assay: Surface plasmon resonance (SPR) assay, single cycle kinetics; assay type: binding; conditions: pKD category for uPAR SPR activity assay, uPAR-Fc on Protein A-Chip, 25°C, read-out: pKD CAT (converted)
T1 construct: comprising amino acids Leu23-Arg303 according to UniProt entry Q03405.1; purchased R&D Systems 10378-UK-100
T1 sequence (Q03405 23-303): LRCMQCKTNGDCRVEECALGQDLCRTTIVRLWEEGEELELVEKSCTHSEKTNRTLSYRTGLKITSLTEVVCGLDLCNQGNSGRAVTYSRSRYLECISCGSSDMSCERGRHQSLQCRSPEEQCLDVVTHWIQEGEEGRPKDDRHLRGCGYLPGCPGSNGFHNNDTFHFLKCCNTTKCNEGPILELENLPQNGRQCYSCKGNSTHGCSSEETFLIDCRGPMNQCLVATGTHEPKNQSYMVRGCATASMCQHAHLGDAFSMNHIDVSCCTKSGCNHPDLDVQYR
In short: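 uPAR-Fc (Leu23-Arg303 extracellular domains, human IgG1 Fc) captured on Protein A chip to ~2000 RU; single-cycle kinetics at 25°C in HEPES running buffer pH 7.4 with 0.1% DMSO. KD from double-referenced sensorgrams fitted to 1:1 Langmuir model, reported as pKD.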

[2] = molecular target: T2, uPAR-expressing HEC-265 human endometrial adenocarcinoma cells (Homo sapiens, UniProt Q03405); assay: Competitive FACS binding assay; conditions: pIC50 category of FACS binding
T2 construct: Cell surface uPAR-expressing HEC-265 human endometrial adenocarcinoma cells; host or cells: HEC-265
T2 sequence (Q03405 23-335): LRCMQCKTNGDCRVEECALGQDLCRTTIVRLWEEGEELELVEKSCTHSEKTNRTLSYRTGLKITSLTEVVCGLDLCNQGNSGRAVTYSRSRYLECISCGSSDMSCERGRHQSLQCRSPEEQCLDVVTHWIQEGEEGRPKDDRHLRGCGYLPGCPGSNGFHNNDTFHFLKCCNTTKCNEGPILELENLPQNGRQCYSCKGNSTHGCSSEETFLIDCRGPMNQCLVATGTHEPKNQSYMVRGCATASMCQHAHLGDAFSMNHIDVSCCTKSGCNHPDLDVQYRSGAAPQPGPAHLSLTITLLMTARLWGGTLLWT
In short: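 HEC-265 cells incubated 1 h at 4 °C with 10 nM biotinylated uPAR peptide tracer plus increasing test compound, then stained with APC-streptavidin on ice. Median APC fluorescence by flow cytometry; 4PL fit gives pIC50.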

[3] = molecular target: T3, Recombinant soluble human NEP (Homo sapiens, UniProt P08473); assay: Proteolytic stability assay against NEP; assay type: in vitro ADME; conditions: human NEP 100 ng/mL, compound 10 µM, 37°C, LC-MS quantification; for remaining at 24 h, 10 µM: recombinant soluble human NEP, read-out: % intact compound remaining after 24h incubation
T3 construct: Recombinant soluble human NEP; purchased BioTechne, Wiesbaden, Germany
T3 sequence (P08473 52-750 limits assumed): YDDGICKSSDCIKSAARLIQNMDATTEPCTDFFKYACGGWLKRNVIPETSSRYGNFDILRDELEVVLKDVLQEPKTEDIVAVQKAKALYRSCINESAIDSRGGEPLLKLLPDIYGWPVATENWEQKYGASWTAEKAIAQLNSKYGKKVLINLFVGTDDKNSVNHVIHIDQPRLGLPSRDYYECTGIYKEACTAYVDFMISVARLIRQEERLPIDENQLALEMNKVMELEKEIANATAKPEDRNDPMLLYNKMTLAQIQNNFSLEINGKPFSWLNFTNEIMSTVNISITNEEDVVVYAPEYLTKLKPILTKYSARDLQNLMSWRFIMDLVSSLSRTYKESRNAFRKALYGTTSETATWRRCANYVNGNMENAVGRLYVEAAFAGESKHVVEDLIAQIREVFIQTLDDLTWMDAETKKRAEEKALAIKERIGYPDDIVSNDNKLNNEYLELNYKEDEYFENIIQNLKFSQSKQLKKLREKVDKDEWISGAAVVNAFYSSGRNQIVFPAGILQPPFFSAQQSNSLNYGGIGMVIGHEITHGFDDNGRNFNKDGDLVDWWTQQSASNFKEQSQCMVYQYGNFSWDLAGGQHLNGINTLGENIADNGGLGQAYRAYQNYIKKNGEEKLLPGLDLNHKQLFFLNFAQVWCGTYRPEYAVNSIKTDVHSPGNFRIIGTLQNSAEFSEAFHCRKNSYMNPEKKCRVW
Protocol: To assess the stability of compounds against NEP, the compounds were subjected to an in vitro assay based on the protocol described by Edelson et al. (Edelson, Makhlina et al. 2013).
Recombinant soluble human NEP (BioTechne, Wiesbaden, Germany) at a concentration of 100 ng/mL was mixed with the compound (10 µM) and a stable internal standard (10 µM) and incubated at 37°C. After several time points, samples were taken and analyzed with LC-MS.
The determination of the analyte in the clean sample solutions was performed on an Agilent 1290 UHPLC system coupled to an Agilent 6530 Q-TOF mass spectrometer. The chromatographic separation was carried out on a Phenomenex BioZen XB-C18 HPLC column (50 × 2 mm, 1.7 µm particle size) with gradient elution using a mixture of 0.1% formic acid in water as eluent A and acetonitrile as eluent B (2% B to 41% in 7 min, 800 µl/min, 40°C). Mass spectrometric detection was performed in positive ion ESI mode by scanning the mass range from m/z 50 to 3000 with a sampling rate of 2 / sec.
(§1) From the mass spectrometric raw data the ion currents for the double or triple charged monoisotopic signal was extracted for both, the compound and the internal standard.
(§2) Quantitation was performed by external matrix calibration with internal standard using the integrated analyte signals.
The activity of NEP was examined using a commercially available chromogenic substrate of NEP.
(§3) The result is stated as "% intact compound remaining after 24 h incubation" and means that from the amount of material at the start of the experiment the stated percentage is detected as unchanged material at the end of the experiment by LC-MS quantification. Since all compounds are more than 50% intact after 24 h they are considered as stable enough for diagnostic and therapeutic applications. Table 14: Results of the NEP stability assay

[4] = Plasma stability assay (human plasma); assay type: in vitro ADME; conditions: human plasma (sodium citrate 3.7%), 37°C, LC-MS quantification, read-out: % intact compound remaining after 6h incubation Human plasma
Protocol: (§4) In order to determine the stability of selected compounds of the invention in human and mouse plasma, a plasma stability assay was carried out. Such plasma stability assay measures degradation of compounds of the present invention in blood plasma. This is an important characteristic of a compound as compounds, with the exception of pro-drugs, which rapidly degrade in plasma, generally show poor in vivo efficacy. […] The stability is sufficient for the diagnostic, therapeutic and theragnostic use of these compounds according to the present invention.
(§5) The plasma stability samples were prepared by spiking 50 µl plasma aliquots (all sodium citrate 3.7%) with 1 µl of a 0.5 mM compound stock solution in DMSO. After vortexing the samples were incubated in a Thermomixer at 37°C for 0 and 6 hours. After incubation the samples were stored on ice until further treatment. All samples were prepared in duplicates.
A suitable internal standard was added to each sample (1 µl of a 0.5 mM stock solution in DMSO). Protein precipitation was performed using two different methods depending on the compound conditions as indicated in Table 13. • A) 250 µl of acetonitrile containing 1% trifluoroacetic acid was added. […]
as §2
(§6) Additionally, recovery was determined by spiking a pure plasma sample that only contained the internal standard after treatment with a certain amount of the compound.
(§7) Carry-over was evaluated by analysis of a blank sample (20% acetonitrile) after the highest calibration sample.
The result is stated as "% intact compound remaining after 6 h incubation" and means that from the amount of material at the start of the experiment the stated percentage is detected as unchanged material at the end of the experiment by LC-MS quantification. […]

[5] = Plasma stability assay (mouse plasma); assay type: in vitro ADME; conditions: 37°C, LC-MS quantification; for remaining at 6 h, 9.8 µM: mouse plasma (sodium citrate 3.7%), read-out: % intact compound remaining after 6h incubation Mouse plasma
Protocol: as §4, §5
A suitable internal standard was added to each sample (1 µl of a 0.5 mM stock solution in DMSO). Protein precipitation was performed using two different methods depending on the compound conditions as indicated in Table 13. • A) 250 µl of acetonitrile containing 1% trifluoroacetic acid was added. After incubation at room temperature for 30 min the precipitate was separated by centrifugation and 150 µl of the supernatant was diluted with 150 µl of 1% aqueous formic acid. • B) 150 µl of a zinc sulphate precipitation agent containing 78% 0.1 M zinc sulphate and 22% acetonitrile was added. After incubation at room temperature for 30 min the precipitate was separated by centrifugation. To 100 µl of the supernatant 10 µl of 1% formic acid was added followed by further incubation at 60°C for 10 min to complete the formation of the zinc chelate, if the compound contains a free DOTA moiety.
The determination of the analyte in the clean sample solutions was performed on an Agilent 1290 UHPLC system coupled to an Agilent 6530 Q-TOF mass spectrometer. The chromatographic separation was carried out on a Phenomenex BioZen XB-C18 HPLC column (50 x 2 mm, 1.7 µm particle size).
Two different elution gradients were applied using a mixture of 0.1% formic acid in water as eluent A and acetonitrile as eluent B: • A) 2% B to 41% in 7 min, 800 µl/min, 40°C. • B) 5% B to 50% B in 6 min, 800 µL/min, 40°C.
Mass spectrometric detection was performed in positive ion ESI mode by scanning the mass range from m/z 50 to 3000 with a sampling rate of 2 / sec.
as §1, §2, §6, §7
as §3, with “6” for “24”, “13:” for “14:”, “plasma” for “NEP”

Row | Molecule | Kd [1] [nM] | IC50 [2] [nM] | remaining at 24 h, 10 µM [3] [%] | remaining at 6 h, 9.8 µM [4] [%] | remaining at 6 h, 9.8 µM [5] [%] | Kd ([1]; single cycle kinetics) [nM] | pIC50 CAT [2] | % intact compound remaining after 6h incubation Mouse plasma ([5]; mouse plasma (sodium citrate)) [%] | % intact compound remaining after 24h incubation [3] [%]
1 | CCCCC(=O)N[C@H]1CSSC[C@@H](C(N)=O)NC(=O)[C@H](CCC)NC(=O)[C@H]([C@@H](C)CC)NC(=O)[C@@H]2C[C@@H](O)CN2C(=O)[C@@H]2CCCN2C(=O)[C@H](Cc2ccc(Cl)cc2)NC(=O)[C@H](Cc2ccc(O)cc2)NC(=O)[C@H](CCCCNC(=O)CN2CCN(CC(=O)O)CCN(CC(=O)O)CCN(CC(=O)O)CC2)NC(=O)[C@H](CCCNC(N)=O)NC1=O [UPAR-233, Pent-[Cys-Cit-Lys(DOTA)-Tyr-Pcf-Pro-Hyp-Ile-Nva-Cys]-NH2] (Pentanoyl-C[Cit]K(DOTA)Y[Phe(4-Cl)]P[Hyp]I[Nva]C-NH2; disulfide 1-10) | < 1.58 | ≤ 10 | > 95 | – | – | – | – | – | –
2 | CCCCC(=O)N[C@H]1CSSC[C@@H](C(N)=O)NC(=O)[C@H](CCC)NC(=O)[C@H]([C@@H](C)CC)NC(=O)[C@@H]2C[C@@H](F)CN2C(=O)[C@@H]2CCCN2C(=O)[C@H](Cc2ccccc2)NC(=O)[C@H](Cc2ccc(O)cc2)NC(=O)[C@H](CCCCNC(=O)CN2CCN(CC(=O)O)CCN(CC(=O)O)CCN(CC(=O)O)CC2)NC(=O)[C@H](CCCNC(N)=O)NC1=O [UPAR-246, Pent-[Cys-Cit-Lys(DOTA)-Tyr-Phe-Pro-4Tfp-Ile-Nva-Cys]-NH2] (Pentanoyl-C[Cit]K(DOTA)YFP[Pro(trans-4-F)]I[Nva]C-NH2; disulfide 1-10) | < 1.58 | ≤ 10 | 89 | – | – | – | – | – | –
3 | CCCCOC(=O)N[C@H]1CSSC[C@@H](C(N)=O)NC(=O)[C@H](CCC)NC(=O)[C@H]([C@@H](C)CC)NC(=O)[C@@H]2C[C@@H](O)CN2C(=O)[C@@H]2C[C@H](F)CN2C(=O)[C@H](Cc2ccccc2)NC(=O)[C@H](Cc2ccc(O)c(O)c2)NC(=O)[C@H](CCCCNC(=O)CN2CCN(CC(=O)O)CCN(CC(=O)O)CCN(CC(=O)O)CC2)NC(=O)[C@H]([C@@H](C)O)NC1=O [UPAR-249, Butoc-[Cys-Thr-Lys(DOTA)-Dopa-Phe-4Cfp-Hyp-Ile-Nva-Cys]-NH2] (Butoxycarbonyl-CTK(DOTA)[Dopa]F[Pro(cis-4-F)][Hyp]I[Nva]C-NH2; disulfide 1-10) | < 1.58 | ≤ 10 | – | 64 | 22 | – | – | – | –
4 | CCCCC(=O)N[C@H]1CSSC[C@@H](C(N)=O)NC(=O)[C@H](CCC)NC(=O)[C@H]([C@@H](C)CC)NC(=O)[C@@H]2C[C@@H](O)CN2C(=O)[C@@H]2CCCN2C(=O)[C@H](Cc2ccccc2)NC(=O)[C@H](Cc2ccc(O)cc2)NC(=O)[C@H](CCCCNC(=O)CN2CCN(CC(=O)O)CCN(CC(=O)O)CCN(CC(=O)O)CC2)NC(=O)[C@H]([C@@H](C)O)NC1=O [UPAR-301, Pent-[Cys-Thr-Lys(DOTA)-Tyr-Phe-Pro-Hyp-Ile-Nva-Cys]-NH2] (Pentanoyl-CTK(DOTA)YFP[Hyp]I[Nva]C-NH2; disulfide 1-10) | < 1.58 | ≤ 10 | – | > 95 | 91 | – | – | – | –
5 | CCCCNC(=O)N[C@H]1CSSC[C@@H](C(N)=O)NC(=O)[C@H](CCC)NC(=O)[C@H]([C@@H](C)CC)NC(=O)[C@@H]2C[C@@H](O)CN2C(=O)[C@@H]2CCCN2C(=O)[C@H](Cc2ccccc2)NC(=O)[C@H](Cc2ccc(O)cc2)NC(=O)[C@H](CCCCNC(=O)CN2CCN(CC(=O)O)CCN(CC(=O)O)CCN(CC(=O)O)CC2)NC(=O)[C@H](CCCNC(N)=O)NC1=O [UPAR-346, nBu-CAyl-[Cys-Cit-Lys(DOTA)-Tyr-Phe-Pro-Hyp-Ile-Nva-Cys]-NH2] ({NHBu-CO}-C[Cit]K(DOTA)YFP[Hyp]I[Nva]C-NH2; disulfide 1-10) | – | ≤ 10 | 89 | – | – | < 1.58 | – | – | –
6 | CC[C@H](C)[C@@H]1NC(=O)[C@@H](C)NC(=O)[C@@H]2CCCN2C(=O)[C@H](Cc2ccccc2)NC(=O)[C@H](Cc2ccc(O)cc2)NC(=O)[C@H](CCC(N)=O)NC(=O)[C@@H](CCCNC(N)=O)NC(=O)[C@@H](NC(=O)CCC(C)C)CSSC[C@@H](C(N)=O)NC(=O)[C@H](CC(C)C)NC1=O [UPAR-364, iHex-[Cys-cit-Gln-Tyr-Phe-Pro-ala-Ile-Leu-Cys]-NH2] ({Pentanoyl(4-Me)}-C[dCit]QYFP[dA]ILC-NH2; disulfide 1-10) | – | ≥ 126 | > 95 | – | – | > 100 | – | – | –
7 | CC[C@H](C)[C@@H]1NC(=O)[C@@H]2CCCN2C(=O)[C@@H]2CCCN2C(=O)[C@H](Cc2ccccc2)NC(=O)[C@H](Cc2ccc(O)cc2)NC(=O)[C@H](CCC(N)=O)NC(=O)[C@H](CCCCNC(=O)CN2CCN(CC(=O)O)CCN(CC(=O)O)CCN(CC(=O)O)CC2)NC(=O)[C@@H](NC(=O)CCC(C)C)CSSC[C@@H](C(N)=O)NC(=O)[C@H](CC(C)C)NC1=O [UPAR-466, iHex-[Cys-Lys(DOTA)-Gln-Tyr-Phe-Pro-Pro-Ile-Leu-Cys]-NH2] ({Pentanoyl(4-Me)}-CK(DOTA)QYFPPILC-NH2; disulfide 1-10) | – | ≤ 10 | > 95 | – | – | < 1.58 | – | – | –
8 | iHex-[Cys-Cit-Lys(GdDOTA)-Tyr-Phe-Pro-ala-Ile-Leu-Cys]-NH2 ({Pentanoyl(4-Me)}-C[Cit]K(GdDOTA)YFP[dA]ILC-NH2; disulfide 1-10 (inferred); not fully specified) [UPAR-463] | – | – | – | – | – | – | A (pIC50 values ≥8.0) | 81 | 88
